In brackets after ≈: the same amount, converted by molar mass. Blank lines part the entries; values can stand above or below the compound they belong to.
What was measured:
Aurora kinase A [1] = biological target: T1, Aurora kinase A (Homo sapiens, UniProt O14965); assay: Inhibition of N-terminal GST tagged Aurora A (unknown origin) expressed in recombinant baculovirus-infected Sf9 cells using tetra(LRRWSLG) as substrate preincubated for 15 mins followed by the addition of substrate for 90 mins in the presence of ATP by Kinase-Glo Plus reagent based luminescence assay
T1 sequence (O14965 whole entry): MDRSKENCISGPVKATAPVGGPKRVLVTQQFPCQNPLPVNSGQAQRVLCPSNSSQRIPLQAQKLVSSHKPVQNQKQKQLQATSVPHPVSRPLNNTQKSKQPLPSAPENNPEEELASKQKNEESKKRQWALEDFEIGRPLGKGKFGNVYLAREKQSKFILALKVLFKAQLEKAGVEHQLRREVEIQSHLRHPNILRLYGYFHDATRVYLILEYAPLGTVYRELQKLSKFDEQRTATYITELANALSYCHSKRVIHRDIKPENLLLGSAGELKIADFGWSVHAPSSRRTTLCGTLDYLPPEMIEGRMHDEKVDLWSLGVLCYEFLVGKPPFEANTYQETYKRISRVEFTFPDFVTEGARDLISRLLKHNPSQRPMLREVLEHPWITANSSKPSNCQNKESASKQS

HCT-116 [2] = assay: Antiproliferative activity against human HCT-116 cells by MTT assay
[3] = Inhibition of Aurora B (unknown origin) using Ulight-PLK (Ser137) as substrate incubated for 60 mins by FRET-based Lance Ultra Kinase assay; set-up: species or system Homo sapiens
Aurora kinase A [4] = biological target: T1, Aurora kinase A; assay: Inhibition of human Aurora A using LeuArgArgAlaSerLeuGly as substrate
A549 [5] = assay: Antiproliferative activity against human A549 cells incubated for 72 hrs by MTT assay; type: functional, cell-based; settings: A549, 72 h
HepG2 [6] = assay: Antiproliferative activity against human HepG2 cells; type: functional, cell-based
HCT-116 [7] = assay: Antiproliferative activity against human HCT-116 cells incubated for 48 hrs by SRB assay; type: functional, cell-based; settings: HCT-116, 48 h
A2780 = assay: Antiproliferative activity against human A2780 cells incubated for 48 hrs by SRB assay; type: functional, cell-based; settings: A2780, 48 h
HepG2 [8] = assay: Antiproliferative activity against human HepG2 cells incubated for 48 hrs by SRB assay; type: functional, cell-based; settings: HepG2, 48 h
SK-OV-3 = assay: Antiproliferative activity against human SK-OV-3 cells incubated for 72 hrs by alamar blue cell viability assay; type: functional, cell-based; settings: SK-OV-3, 72 h
MCF7 = assay: Antiproliferative activity against human MCF7 cells incubated for 72 hrs by alamar blue cell viability assay; type: functional, cell-based; settings: MCF7, 72 h
[9] = Oral bioavailability in mouse at 10 mg/kg; type: ADME, organism-based; settings: in vivo
A-375 = assay: Antiproliferative activity against human A-375 cells incubated for 72 hrs by alamar blue cell viability assay; type: functional, cell-based; settings: A-375, 72 h
A549 [10] = assay: Antiproliferative activity against human A549 cells incubated for 72 hrs by alamar blue cell viability assay; type: functional, cell-based; settings: A549, 72 h
MDA-MB-231 = assay: Antiproliferative activity against human MDA-MB-231 cells incubated for 72 hrs by alamar blue cell viability assay; type: functional, cell-based; settings: MDA-MB-231, 72 h
[11] = biological target: T2, Aurora kinase A (Homo sapiens) (UniProt O14965); assay: Inhibition of Aurora kinase A (unknown origin) using LeuArgArgAlaSerLeuGly as substrate at 10 uM incubated in presence of ATP relative to control
T2 sequence (whole entry): T1 sequence (O14965 whole entry)

HCT-116 [12] = assay: Anticancer activity against human HCT-116 cells assessed as cell growth inhibition measured after 7 days by crystal violet staining based clonogenic long-term survival assay; type: functional; settings: HCT-116, 168 h, time 7 day
Aurora kinase A [13] = biological target: T1, Aurora kinase A; assay: Inhibition of Aurora A (unknown origin) using recombinant Lats2-N-ter as substrate incubated in the presence of ATP

SMILES: COc1cc2ncnc(NCCc3ccc(NC(=O)Nc4ccccc4)cc3)c2cc1OC
IC50 (Aurora kinase A [1]): 25 nM
IC50 (HCT-116 [2]): 23 nM

SMILES: CC(=O)N1CCN(c2ccc(Nc3ncc(F)c(N4CCN(C)c5cc(F)ccc5C4)n3)cc2)CC1
IC50 [3]: 9 nM

SMILES: O=C(N/N=C/c1coc2ccccc2c1=O)c1ccc(F)cc1
IC50 (Aurora kinase A [4]): 1140 nM
IC50 (A549 [5]): 1140 nM

SMILES: COc1cccc2c1C(=O)c1c(O)c3c(c(O)c1C2=O)C[C@@](O)(C(=O)CO)C[C@@H]3O[C@H]1C[C@H](N)[C@H](O)[C@H](C)O1 [DOXORUBICIN]
IC50 (HepG2 [6]): 3.56 µg/mL (≈ 6.55 µM)

SMILES: Cc1c(-c2cc(-c3cn(-c4ccccc4)nc3-c3nnn(-c4ccc(Br)cc4)c3C)c(C#N)c(N)n2)nnn1-c1ccc(Br)cc1
IC50 (HepG2 [6]): 0.64 µg/mL (≈ 0.873 µM)

SMILES: CN1CCN(c2nc(Nc3ccc(S(N)(=O)=O)cc3)ncc2F)Cc2ccc(F)cc21
IC50 (SK-OV-3): 690 nM
IC50 (MCF7): 570 nM
bioavailability [9]: 73%
IC50 (A-375): 3970 nM
IC50 (A549 [10]): 1530 nM
IC50 (MDA-MB-231): 420 nM
IC50 [3]: 8 nM

SMILES: CN1CCN(c2ccc(Nc3ncc(F)c(N4CCN(C)c5cc(F)ccc5C4)n3)cc2)CC1
IC50 [3]: 7 nM

SMILES: Cc1c(-c2cc(-c3cn(-c4ccccc4)nc3-c3nnn(-c4cccc([N+](=O)[O-])c4)c3C)c(C#N)c(N)n2)nnn1-c1ccc(Br)cc1
IC50 (HepG2 [6]): 1.08 µg/mL (≈ 1.54 µM)

SMILES: C=CCn1c(C)nc2ccc(Nc3nc(N4CCN(C)CC4)nc4ccccc34)cc21
IC50 (Aurora kinase A [13]): 35 nM

More lines, main results first:

IC50 (HCT-116 [7]): 1320 nM
IC50 (A2780): 3500 nM
IC50 (HepG2 [8]): 2340 nM
SMILES: NC1=C(C(=O)Nc2ccc(-c3nc4ccccc4[nH]3)cc2)C(c2ccc([N+](=O)[O-])cc2)N2C=CSC2N1 (stereo unspecified)

inhibition [11]: 95%
SMILES: COc1ccc(-c2cc(-c3ccccc3O)nc(N)n2)c(OC)c1
GI50 (HCT-116 [12]): 1450 nM

IC50 (HepG2 [6]): 2.34 µg/mL (≈ 5.07 µM)
SMILES: COc1ccc(-c2cc(-c3nnn(-c4ccc(Br)cc4)c3C)nc(N)c2C#N)cc1

IC50 (HCT-116 [7]): 1200 nM
IC50 (A2780): 3100 nM
IC50 (HepG2 [8]): 2110 nM
SMILES: COc1ccccc1C1C(C(=O)Nc2ccc(-c3nc4ccccc4[nH]3)cc2)=C(N)NC2SC=CN21 (stereo unspecified)

— ChEMBL document CHEMBL5096182, “Aurora kinase inhibitors as potential anticancer agents: Recent advances” (Eur J Med Chem, 2021)
